What was measured:
Type in all cases: in vivo
kochia (Kochia scoparia) = assay: Test C greenhouse herbicide test, postemergence
Method in brief: (§1)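 Plants grown in potting mix of peat moss, vermiculite, wetting agent and starter nutrients were sprayed postemergence at 2 to 18 cm height (1- to 4-leaf stage). After 13 to 15 d in the greenhouse, injury was visually rated against untreated controls on a 0–100 scale (0 no effect, 100 complete control).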

[1] = tested on: oat, wild (wild oat, Avena fatua); assay: Test C greenhouse herbicide test, postemergence
Method in brief: as §1

[2] = tested on: oilseed rape (Brassica napus); assay: Test C greenhouse herbicide test, pre- and postemergence
Description: (§2) Seeds of plant species selected from blackgrass (Alopecurus myosuroides), ryegrass, Italian (Italian ryegrass, Lolium multiflorum), wheat (winter wheat, Triticum aestivum), galium (catchweed bedstraw, Galium aparine), corn (Zea mays), large crabgrass, large (large crabgrass, Digitaria sanguinalis), foxtail, giant (giant foxtail, Setaria faberii), johnsongrass (Sorghum halepense), lambsquarters (Chenopodium album), morningglory (Ipomoea coccinea), nutsedge, yellow (yellow nutsedge, Cyperus esculentus), pigweed (Amaranthus retroflexus), ragweed (common ragweed, Ambrosia elatior), soybean (Glycine max), barnyardgrass (Echinochloa crus-galli), oilseed rape (Brassica napus), waterhemp (common waterhemp, Amaranthus rudis), and velvetleaf (Abutilon theophrasti) were planted into a blend of loam soil and sand and treated preemergence with test chemicals formulated in a non-phytotoxic solvent mixture which included a surfactant.
(§3) At the same time, plants selected from these crop and weed species and also chickweed (common chickweed, Stellaria media), kochia (Kochia scoparia), and oat, wild (wild oat, Avena fatua), were planted in pots containing Redi-Earth® planting medium (Scotts Company, 14111 Scottslawn Road, Marysville, Ohio 43041) comprising spaghnum peat moss, vermiculite, wetting agent and starter nutrients and treated with postemergence applications of test chemicals formulated in the same manner. Plants ranged in height from 2 to 18 cm (1- to 4-leaf stage) for postemergence treatments. Treated plants and controls were maintained in a greenhouse for 13 to 15 d, after which time all species were compared to controls and visually evaluated. Plant response ratings, summarized in Table C, are based on a scale of 0 to 100 where 0 is no effect and 100 is complete control. A dash (-) response means no test result.

[3] = tested on: nutsedge, yellow (yellow nutsedge, Cyperus esculentus); assay: as above
Description: as §2, §3

[4] = tested on: velvetleaf (Abutilon theophrasti); assay: as above
Description: as §2, §3

[5] = tested on: waterhemp (common waterhemp, Amaranthus rudis); assay: as above
Description: as §2, §3

[6] = tested on: johnsongrass (Sorghum halepense); assay: as above
Description: as §2, §3

[7] = tested on: morningglory (Ipomoea coccinea); assay: as above
Description: as §2, §3

[8] = tested on: foxtail, giant (giant foxtail, Setaria faberii); assay: as above
Description: as §2, §3

[9] = tested on: blackgrass (Alopecurus myosuroides); assay: as above
Description: as §2, §3

[10] = tested on: wheat (winter wheat, Triticum aestivum); assay: as above
Description: as §2, §3

[11] = tested on: barnyardgrass (Echinochloa crus-galli); assay: as above
Description: as §2, §3

[12] = tested on: pigweed (Amaranthus retroflexus); assay: as above
Description: as §2, §3

corn (Zea mays) = assay: as above
Description: as §2, §3

[13] = tested on: lambsquarters (Chenopodium album); assay: as above
Description: as §2, §3

[14] = tested on: crabgrass, large (large crabgrass, Digitaria sanguinalis); assay: as above
Description: as §2, §3

[15] = Postemergence, 31 g ai/ha, 0 to 100 scale (0 no effect, 100 complete control)
[16] = Postemergence, 125 g ai/ha, scale 0 to 100, 0 is no effect, 100 is complete control
[17] = Postemergence, 250 g ai/ha, scale 0 to 100, 0 no effect, 100 complete control, 13 to 15 d
[18] = postemergence, 62 g ai/ha, scale 0 to 100, 0 no effect, 100 complete control
[19] = Preemergence, 31 g ai/ha, scale 0 to 100, 0 is no effect, 100 is complete control
[20] = Preemergence, 62 g ai/ha, scale 0 to 100, 0 is no effect, 100 is complete control
[21] = Preemergence, 125 g ai/ha, scale 0 to 100, 0 is no effect, 100 is complete control
[22] = Preemergence, 250 g ai/ha, scale 0 to 100 (0 no effect, 100 complete control)

CC(=O)Oc1c(C)nn(C)c(=O)c1-c1c(C)sc2ccc(C)cc12 [Compound 25]
Kochia plant response rating (kochia (Kochia scoparia); [15]): 95 | Plant response rating, Kochia (kochia (Kochia scoparia); [16]): 100 | Plant response rating, Kochia (kochia (Kochia scoparia); [17]): 100 | Kochia plant response rating (kochia (Kochia scoparia); [18]): 95 | Oat, Wild plant response rating [1, 15]: 60 | Plant response rating, Oat, Wild [1, 16]: 90 | Plant response rating, Oat, Wild [1, 17]: 95 | Oat, Wild plant response rating [1, 18]: 70 | Oilseed Rape plant response rating [2, 15]: 0 | Plant response rating, Oilseed Rape [2, 16]: 20 | Plant response rating, Oilseed Rape [2, 17]: 5 | Plant response rating, Oilseed Rape [2, 19]: 0 | Plant response rating, Oilseed Rape [2, 20]: 0 | Plant response rating, Oilseed Rape [2, 21]: 5 | Oilseed Rape plant response rating [2, 22]: 35 | Oilseed Rape plant response rating [2, 18]: 0 | Nutsedge, Yellow plant response rating [3, 15]: 65 | Plant response rating, Nutsedge, Yellow [3, 16]: 90 | Plant response rating, Nutsedge, Yellow [3, 17]: 90 | Plant response rating, Nutsedge, Yellow [3, 19]: 40 | Plant response rating, Nutsedge, Yellow [3, 20]: 30 | Plant response rating, Nutsedge, Yellow [3, 21]: 70 | Nutsedge, Yellow plant response rating [3, 22]: 80 | Nutsedge, Yellow plant response rating [3, 18]: 75 | Velvetleaf plant response rating [4, 15]: 70 | Plant response rating, Velvetleaf [4, 16]: 85 | Plant response rating, Velvetleaf [4, 17]: 98 | Plant response rating, Velvetleaf [4, 20]: 85 | Plant response rating, Velvetleaf [4, 21]: 90 | Velvetleaf plant response rating [4, 22]: 98 | Velvetleaf plant response rating [4, 18]: 80 | Waterhemp plant response rating [5, 15]: 75 | Plant response rating, Waterhemp [5, 16]: 95 | Plant response rating, Waterhemp [5, 17]: 98 | Plant response rating, Waterhemp [5, 20]: 100 | Plant response rating, Waterhemp [5, 21]: 100 | Waterhemp plant response rating [5, 22]: 100 | Waterhemp plant response rating [5, 18]: 95 | Johnsongrass plant response rating [6, 15]: 0 | Plant response rating, Johnsongrass [6, 16]: 5 | Plant response rating, Johnsongrass [6, 17]: 10 | Plant response rating, Johnsongrass [6, 19]: 0 | Plant response rating, Johnsongrass [6, 20]: 0 | Plant response rating, Johnsongrass [6, 21]: 5 | Johnsongrass plant response rating [6, 22]: 20 | Johnsongrass plant response rating [6, 18]: 5 | Morningglory plant response rating [7, 15]: 100 | Plant response rating, Morningglory [7, 16]: 100 | Plant response rating, Morningglory [7, 17]: 100 | Plant response rating, Morningglory [7, 19]: 85 | Plant response rating, Morningglory [7, 20]: 95 | Plant response rating, Morningglory [7, 21]: 95 | Morningglory plant response rating [7, 22]: 100 | Morningglory plant response rating [7, 18]: 100 | Foxtail, Giant plant response rating [8, 15]: 35 | Plant response rating, Foxtail, Giant [8, 16]: 70 | Plant response rating, Foxtail, Giant [8, 17]: 85 | Plant response rating, Foxtail, Giant [8, 19]: 75 | Plant response rating, Foxtail, Giant [8, 20]: 85 | Plant response rating, Foxtail, Giant [8, 21]: 90 | Foxtail, Giant plant response rating [8, 22]: 100 | Foxtail, Giant plant response rating [8, 18]: 35 | Blackgrass plant response rating [9, 15]: 30 | Plant response rating, Blackgrass [9, 16]: 60 | Plant response rating, Blackgrass [9, 17]: 80 | Plant response rating, Blackgrass [9, 19]: 85 | Plant response rating, Blackgrass [9, 20]: 85 | Plant response rating, Blackgrass [9, 21]: 90 | Blackgrass plant response rating [9, 22]: 90 | Blackgrass plant response rating [9, 18]: 55 | Wheat plant response rating [10, 15]: 0 | Plant response rating, Wheat [10, 16]: 0 | Plant response rating, Wheat [10, 17]: 5 | Plant response rating, Wheat [10, 20]: 0 | Plant response rating, Wheat [10, 21]: 0 | Wheat plant response rating [10, 22]: 5 | Wheat plant response rating [10, 18]: 0 | Barnyardgrass plant response rating [11, 15]: 15 | Plant response rating, Barnyardgrass [11, 16]: 20 | Plant response rating, Barnyardgrass [11, 17]: 25 | Plant response rating, Barnyardgrass [11, 19]: 0 | Plant response rating, Barnyardgrass [11, 20]: 30 | Plant response rating, Barnyardgrass [11, 21]: 70 | Barnyardgrass plant response rating [11, 22]: 85 | Barnyardgrass plant response rating [11, 18]: 20 | Pigweed plant response rating [12, 15]: 90 | Plant response rating, Pigweed [12, 16]: 95 | Plant response rating, Pigweed [12, 17]: 98 | Plant response rating, Pigweed [12, 19]: 100 | Plant response rating, Pigweed [12, 20]: 100 | Plant response rating, Pigweed [12, 21]: 100 | Pigweed plant response rating [12, 22]: 100 | Pigweed plant response rating [12, 18]: 90 | Corn plant response rating (corn (Zea mays); [15]): 5 | Plant response rating, Corn (corn (Zea mays); [16]): 5 | Plant response rating, Corn (corn (Zea mays); [17]): 10 | Plant response rating, Corn (corn (Zea mays); [19]): 0 | Plant response rating, Corn (corn (Zea mays); [20]): 0 | Plant response rating, Corn (corn (Zea mays); [21]): 0 | Corn plant response rating (corn (Zea mays); [22]): 10 | Corn plant response rating (corn (Zea mays); [18]): 5 | Lambsquarters plant response rating [13, 15]: 90 | Plant response rating, Lambsquarters [13, 16]: 98 | Plant response rating, Lambsquarters [13, 17]: 98 | Plant response rating, Lambsquarters [13, 19]: 80 | Plant response rating, Lambsquarters [13, 20]: 85 | Plant response rating, Lambsquarters [13, 21]: 85 | Lambsquarters plant response rating [13, 22]: 95 | Lambsquarters plant response rating [13, 18]: 95 | Crabgrass, Large plant response rating [14, 15]: 5 | Plant response rating, Crabgrass, Large [14, 16]: 20 | Plant response rating, Crabgrass, Large [14, 17]: 20 | Plant response rating, Crabgrass, Large [14, 19]: 70 | Plant response rating, Crabgrass, Large [14, 20]: 75 | Plant response rating, Crabgrass, Large [14, 21]: 95 | Crabgrass, Large plant response rating [14, 22]: 90 | Crabgrass, Large plant response rating [14, 18]: 15

Source: patent US10597388B2, “Pyridazinone herbicides” (FMC CORPORATION, priority 2014, dated 2020)
